From US20090131468A1, “Bis-(Sulfonylamino) Derivatives in Therapy 065” (AstraZeneca AB, priority 2007, published 2009)

molecular target: T1, human mPGES-1 (Homo sapiens, UniProt O14684); test: Microsomal prostaglandin E synthase biochemical assay; settings: microsome preparation containing human mPGES-1; PGH2 10.8 μM, GSH 2.5 mM, pH 6.8; PGE2 quantified by HTRF; average of at least n=2
T1 sequence (O14684 1-152): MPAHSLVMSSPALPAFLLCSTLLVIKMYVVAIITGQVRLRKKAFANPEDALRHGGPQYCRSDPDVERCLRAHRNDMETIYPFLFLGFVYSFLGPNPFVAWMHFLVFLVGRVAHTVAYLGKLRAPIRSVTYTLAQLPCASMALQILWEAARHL
Experimental: Compounds were tested as inhibitors of microsomal prostaglandin E synthase activity in microsomal prostaglandin E synthase assays and whole cell assays. These assays measure prostaglandin E2 (PGE2) synthesis which is taken as a measure of prostaglandin E synthase activity. Microsomal prostaglandin E synthase biochemical assays used microsomal prostaglandin E synthase-1 in microsomal preparations. The source of the microsomes can be for example interleukin-1β-stimulated human A549 cells (which express human mPGES-1) or Sf9 cells transfected with plasmids encoding human mPGES-1 cDNA.
A solution of test compound was added to a diluted microsome preparation containing human mPGES-1 and pre-incubated for 15 minutes in potassium phosphate buffer pH 6.8 with cofactor glutathione (GSH). Corresponding solutions without test compound were used as positive controls, and corresponding solutions without test compound and without microsomes were used as negative controls. The enzymatic reaction was then started by addition of the substrate PGH2 in an organic solution (dry acetonitrile).
The reaction was stopped after one minute by adding an acidic solution (pH 1.9) of ferric chloride and citrate (final concentrations 7 mM and 47 mM respectively), by which the PGH2 was sequestered (the PGH2 is reduced to mainly 12-hydroxy heptadecatrineoic acid (12-HHT) which is not detected by the subsequent PGE2 detection step). The resulting solution was then pH neutralized by addition of potassium phosphate buffer, prior to diluting an aliquot of the resulting solution in a weak potassium phosphate buffer (50 mM, pH 6.8) containing 0.2% BSA (w/v). […] The PGE2 formed was quantified by use of a commercial HTRF based kit (catalogue #62PG2PEC or #62P2APEC from Cisbio International). 100% activity was defined as the PGE2 production in positive controls subtracted by the PGE2 production in the negative controls. IC50 values were then determined using standard procedures.

Row | Structure (SMILES) | IC50
1 | CC(C)(C)C#Cc1ccc(C(=O)NS(=O)(=O)c2ccccc2S(N)(=O)=O)c(C(F)(F)F)c1 [Example 151, 4-(3,3-Dimethylbut-1-ynyl)-N-(2-sulfamoylphenylsulfonyl)-2-(trifluoromethyl)-benzamide] | 0.38 µM
2 | COc1cccc(-c2cc3cc(C(=O)NS(=O)(=O)c4ccccc4S(N)(=O)=O)ccc3o2)c1 [Example 74, 2-(3-Methoxyphenyl)-N-(2-sulfamoylphenylsulfonyl)benzofuran-5-carboxamide] | 0.024 µM
3 | NS(=O)(=O)c1ccccc1S(=O)(=O)NC(=O)c1ccc(Cl)cc1O [Example 81, 4-Chloro-2-hydroxy-N-(2-sulfamoylphenylsulfonyl)benzamide] | 1 µM
4 | NS(=O)(=O)c1ccccc1S(=O)(=O)NC(=O)c1ccc(-c2cc3ccccc3o2)c(CO)c1 [Example 103, 4-(Benzofuran-2-yl)-3-(hydroxymethyl)-N-(2-sulfamoylphenylsulfonyl)benzamide] | 0.015 µM
5 | NS(=O)(=O)c1ccccc1S(=O)(=O)NC(=O)c1ccc2oc(C3(O)CCCC3)cc2c1 [Example 77, 2-(1-Hydroxycyclopentyl)-N-(2-sulfamoylphenylsulfonyl)benzofuran-5-carboxamide] | 0.72 µM
6 | Cc1nc(-c2ccc(Cl)cc2)sc1C(=O)NS(=O)(=O)c1ccccc1S(N)(=O)=O [Example 28, 2-(4-Chlorophenyl)-4-methyl-N-(2-sulfamoylphenyl)sulfonyl-1,3-thiazole-5-carboxamide] | 0.044 µM
7 | NS(=O)(=O)c1ccccc1S(=O)(=O)NC(=O)c1ccc(C#CC2CCCCC2)c(CO)c1 [Example 101, 4-(Cyclohexylethynyl)-3-(hydroxymethyl)-N-(2-sulfamoylphenylsulfonyl)benzamide] | 0.048 µM
8 | NS(=O)(=O)c1ccccc1S(=O)(=O)NC(=O)c1cnc2ccccc2c1 [Example 162, Benzene-1,2-disulfonic acid 1-amide 2[(quinoline-3-carbonyl)-amide]] | 11 µM
9 | NS(=O)(=O)c1ccccc1S(=O)(=O)NC(=O)c1ccc(C#CC2CCCC2)nc1 [Example 93, 6-(Cyclopentylethynyl)-N-(2-sulfamoylphenylsulfonyl)nicotinamide] | 0.058 µM
10 | NS(=O)(=O)c1ccccc1S(=O)(=O)NC(=O)c1ccc2[nH]c(-c3ccccc3)cc2c1 [Example 140] | 0.14 µM
11 | Cc1nc(-c2cccc(Cl)c2)sc1C(=O)NS(=O)(=O)c1ccccc1S(N)(=O)=O [Example 42, 2-(3-Chlorophenyl)-4-methyl-N-(2-sulfamoylphenyl)sulfonyl-1,3-thiazole-5-carboxamide] | 0.11 µM
12 | COc1cc(C(=O)NS(=O)(=O)c2ccccc2S(N)(=O)=O)ccc1C#CC(C)(C)OC [Example 114, 3-Methoxy-4-(3-methoxy-3-methylbut-1-ynyl)-N-(2-sulfamoylphenylsulfonyl)-benzamide] | 1.6 µM
13 | NS(=O)(=O)c1ccccc1S(=O)(=O)NC(=O)c1ccc2oc(C3CC3)cc2c1 [Example 126, 2-Cyclopropyl-N-(2-sulfamoylphenylsulfonyl)benzofuran-5-carboxamide] | 0.26 µM
14 | NS(=O)(=O)c1ccccc1S(=O)(=O)NC(=O)c1ccc(C#CC2CCCC2)cc1F [Example 85, 4-(Cyclopentylethynyl)-2-fluoro-N-(2-sulfamoylphenylsulfonyl)benzamide] | 0.049 µM
15 | COCCOCCOc1cc(C(=O)NS(=O)(=O)c2ccccc2S(N)(=O)=O)cnc1C#CC(C)(C)C [Example 134, 6-(3,3-Dimethylbut-1-ynyl)-5-(2-(2-methoxyethoxy)ethoxy)-N-(2-sulfamoylphenyl-sulfonyl)nicotinamide] | 0.18 µM
16 | NS(=O)(=O)c1ccccc1S(=O)(=O)NC(=O)c1cccc(COCC(F)(F)C(F)F)c1 [Example 21, N-(2-Sulfamoylphenyl)sulfonyl-3-(2,2,3,3-tetrafluoropropoxymethyl)benzamide] | 2.2 µM
17 | CC(C)Oc1cc(C(=O)NS(=O)(=O)c2ccccc2S(N)(=O)=O)ccc1-c1cc2ccccc2o1 [Example 127, 4-(Benzofuran-2-yl)-3-isopropoxy-N-(2-sulfamoylphenylsulfonyl)benzamide] | 0.0095 µM
18 | NS(=O)(=O)c1ccccc1S(=O)(=O)NC(=O)c1c(F)cc(C#CC2CCCC2)cc1F [Example 153, 4-(Cyclopentylethynyl)-2,6-difluoro-N-(2-sulfamoylphenylsulfonyl)benzamide] | 0.33 µM
19 | NS(=O)(=O)c1ccccc1S(=O)(=O)NC(=O)c1ccc(Br)cc1O [Example 49a, 4-Bromo-2-hydroxy-N-(2-sulfamoylphenylsulfonyl)benzamide] | 0.54 µM
20 | Cc1cc(C(=O)NS(=O)(=O)c2ccccc2S(N)(=O)=O)ccc1-c1cc2ccccc2o1 [Example 45, 4-(Benzofuran-2-yl)-3-methyl-N-(2-sulfamoylphenylsulfonyl)benzamide] | 0.0055 µM
21 | C[C@]1(C(=O)NS(=O)(=O)c2ccccc2S(N)(=O)=O)CC[C@H](c2cc3ccccc3o2)CC1 [Example 108, (1r,4r)-4-(Benzofuran-2-yl)-1-methyl-N-(2-sulfamoylphenylsulfonyl)cyclohexane-carboxamide] | 7 µM
22 | NS(=O)(=O)c1ccccc1S(=O)(=O)NC(=O)c1ccc(-c2ccc(Cl)c(Cl)c2)o1 [Example 36, 5-(3,4-Dichlorophenyl)-N-(2-sulfamoylphenyl)sulfonyl-furan-2-carboxamide] | 0.28 µM
23 | NS(=O)(=O)c1ccccc1S(=O)(=O)NC(=O)c1cnc(-c2cc3ccccc3o2)c(Cl)c1 [Example 147, 6-(Benzofuran-2-yl)-5-chloro-N-(2-sulfamoylphenylsulfonyl)nicotinamide] | 0.054 µM
24 | CC(C)C#Cc1ccc(C(=O)NS(=O)(=O)c2ccccc2S(N)(=O)=O)cn1 [Example 99, 6-(3-Methylbut-1-ynyl)-N-(2-sulfamoylphenylsulfonyl)nicotinamide] | 0.4 µM

Continued by falling IC50, values first:

Row | IC50 | Structure (SMILES)
25 | 2 µM | NS(=O)(=O)c1ccccc1S(=O)(=O)NC(=O)c1ccc(-c2cccc(Cl)c2Cl)cn1 [Example 2, 5-(2,3-Dichlorophenyl)-N-(2-sulfamoylphenyl)sulfonyl-pyridine-2-carboxamide]
26 | 2 µM | COc1c(C#CC(C)(C)C)ccc(C(=O)NS(=O)(=O)c2ccccc2S(N)(=O)=O)c1C [Example 68, 4-(3,3-Dimethylbut-1-ynyl)-3-methoxy-2-methyl-N-(2-sulfamoylphenylsulfonyl)-benzamide]
27 | 1.2 µM | CC(C)(C)C#Cc1ccc(C(=O)NS(=O)(=O)c2ccccc2S(N)(=O)=O)nc1 [Example 89, 5-(3,3-Dimethylbut-1-ynyl)-N-(2-sulfamoylphenylsulfonyl)picolinamide]
28 | 1 µM | NS(=O)(=O)c1ccccc1S(=O)(=O)NC(=O)c1ccc(Cl)cc1F [Example 23, 4-Chloro-2-fluoro-N-(2-sulfamoylphenyl)sulfonyl-benzamide]
29 | 0.11 µM | CC(C)(O)C#Cc1cc(C(=O)NS(=O)(=O)c2ccccc2S(N)(=O)=O)ccc1OCc1ccccc1 [Example 156, 4-(Benzyloxy)-3-(3-hydroxy-3-methylbut-1-ynyl)-N-(2-sulfamoylphenylsulfonyl)-benzamide]
30 | 0.11 µM | NS(=O)(=O)c1ccccc1S(=O)(=O)NC(=O)c1ccc(C#CC2CCCC2)c(CO)c1 [Example 98, 4-(Cyclopentylethynyl)-3-(hydroxymethyl)-N-(2-sulfamoylphenylsulfonyl)benzamide]
31 | 0.07 µM | NS(=O)(=O)c1ccccc1S(=O)(=O)NC(=O)c1ccc(C#Cc2ccccc2)c(CO)c1 [Example 100, 3-(Hydroxymethyl)-4-(phenylethynyl)-N-(2-sulfamoylphenylsulfonyl)benzamide]
32 | 0.07 µM | CC(C)(C)C#Cc1ccc(C(=O)NS(=O)(=O)c2ccccc2S(N)(=O)=O)cc1C#N [Example 79, 3-Cyano-4-(3,3-dimethylbut-1-ynyl)-N-(2-sulfamoylphenylsulfonyl)benzamide]
33 | 0.056 µM | CC(C)(O)C#Cc1cccc(C(=O)NS(=O)(=O)c2ccccc2S(N)(=O)=O)c1 [Example 59, 3-(3-Hydroxy-3-methylbut-1-ynyl)-N-(2-sulfamoylphenylsulfonyl)benzamide]
34 | 0.042 µM | NS(=O)(=O)c1ccccc1S(=O)(=O)NC(=O)c1ccc(-c2cc3ccccc3o2)cc1F [Example 83, 4-(Benzofuran-2-yl)-2-fluoro-N-(2-sulfamoylphenylsulfonyl)benzamide]
35 | 0.04 µM | NS(=O)(=O)c1ccccc1S(=O)(=O)NC(=O)c1ccc(-c2cc3ccccc3s2)cc1 [Example 4, 4-Benzothiophen-2-yl-N-(2-sulfamoylphenyl)sulfonyl-benzamide]
36 | 0.012 µM | COc1cc(C(=O)NS(=O)(=O)c2ccccc2S(N)(=O)=O)cnc1C#CC1CCCCC1 [Example 138, 6-(Cyclohexylethynyl)-5-methoxy-N-(2-sulfamoylphenylsulfonyl)nicotinamide]
